Experimental data from paper PMC4729137, “Functional analysis of androgen receptor mutations that confer anti-androgen resistance identified in circulating cell-free DNA from prostate cancer patients” (Genome Biology, 2016).
Where a chain is given by its changes, count along the chain named.

Assays:
H875Y/T878A-AR = target: T1, H875Y/T878A-AR (Homo sapiens, UniProt P10275, H875Y/T878A); format: cell-based; details: AR mutant H875Y/T878A; transfected PC3 cells; 0.1 nM R1881; drug 0 to 50 μM
T1 sequence (P10275 1-920 H875Y/T878A): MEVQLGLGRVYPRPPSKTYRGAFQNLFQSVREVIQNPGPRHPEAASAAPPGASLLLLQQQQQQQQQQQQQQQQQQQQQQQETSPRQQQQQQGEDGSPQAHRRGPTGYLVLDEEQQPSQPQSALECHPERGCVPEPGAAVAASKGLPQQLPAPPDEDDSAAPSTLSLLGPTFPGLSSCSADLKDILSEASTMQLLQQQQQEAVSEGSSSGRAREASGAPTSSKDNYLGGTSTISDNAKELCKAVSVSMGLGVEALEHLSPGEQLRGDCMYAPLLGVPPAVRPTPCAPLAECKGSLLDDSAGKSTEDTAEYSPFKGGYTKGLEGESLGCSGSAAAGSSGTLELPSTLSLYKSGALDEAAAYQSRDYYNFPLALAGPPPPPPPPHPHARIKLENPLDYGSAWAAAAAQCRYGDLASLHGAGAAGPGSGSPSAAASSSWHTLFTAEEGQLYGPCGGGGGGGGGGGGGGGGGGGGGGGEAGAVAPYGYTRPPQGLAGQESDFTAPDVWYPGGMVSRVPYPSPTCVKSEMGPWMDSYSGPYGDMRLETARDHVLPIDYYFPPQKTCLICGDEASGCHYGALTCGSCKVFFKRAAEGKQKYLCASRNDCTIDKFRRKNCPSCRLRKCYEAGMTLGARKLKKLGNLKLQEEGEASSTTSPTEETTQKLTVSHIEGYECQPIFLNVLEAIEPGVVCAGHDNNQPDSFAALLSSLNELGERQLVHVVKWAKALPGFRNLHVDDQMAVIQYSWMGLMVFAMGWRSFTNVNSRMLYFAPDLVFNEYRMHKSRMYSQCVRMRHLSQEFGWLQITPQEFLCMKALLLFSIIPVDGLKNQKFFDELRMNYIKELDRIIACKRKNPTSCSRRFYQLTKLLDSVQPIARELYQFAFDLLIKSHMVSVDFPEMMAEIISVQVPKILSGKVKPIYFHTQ
Text: (§1) Full-length human AR (WT-AR) was encoded on a pcDNA3.1 expression plasmid (Life technologies). The LBD point mutations (single and multiple) were generated using the QuikChange II Site-Directed Mutagenesis Kit (Agilent Technologies) as per manufacturer’s instructions using WT-AR as the template. The mutagenic oligonucleotide primers were designed individually with the desired mutation in the middle of the primer with approximately 10 to 15 bases of correct sequence on both sides.
(§2) PC3 cells were seeded and transfected as described above. […] A non-stimulated/no R1881 control was used. After 24 h, cells were lysed and AR-dependent luciferase activity was quantified. Each concentration was assayed in quadruplicate n = 4, with a biological replicate of n = 3. Results were averaged and normalized by expressing them as a percentage of WT AR activity.

M896T-AR = target: T2, M896T-AR (Homo sapiens, UniProt P10275, M896T); format: cell-based; details: AR mutant M896T; transfected PC3 cells; 0.1 nM R1881; drug 0 to 50 μM
T2 sequence (P10275 1-920 M896T): T1 sequence (P10275 1-920 H875Y/T878A) with Y875H, A878T, M896T
Text: as §1, §2

- Agonist response to treatment (H875Y/T878A-AR): Yes
- Agonist response to treatment (M896T-AR): Partial
SMILES: CC(C)(O)C(=O)Nc1ccc([N+](=O)[O-])c(C(F)(F)F)c1 [Hydroxyflutamide, hydroxyflutamide]
